PubChem BioAssay AID248 (DTP/NCI, 2004)
Where “and” joins values, the source holds several entries; their conditions need not be identical. Equal values may be shown once. Toxic doses and inconclusive results are not listed. No stated cut-off is given here; in the data, active means T/C of 150% or more; inactive means T/C below 125%.

System: L1210 leukemia ip in BDF1 mice, survival T/C
Experiment: NCI In Vivo Anticancer Drug Screen. Data for tumor model L1210 Leukemia (intraperitoneal) in B6D2F1 (BDF1) mice
Conditions: endpoint: mean survival time, higher = longer survival
Method in brief: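 Tumor was transplanted into mice, which were then dosed with test compound or vehicle alone. Survival was recorded for each group, and the treated figure was expressed relative to the control figure.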

[1] = dose: 25.0 mg/kg/injection, schedule: Q01DX009 (ip), vehicle: saline
[2] = dose: 50.0 mg/kg/injection, schedule: Q01DX009 (ip), vehicle: saline
[3] = dose: 100.0 mg/kg/injection, schedule: Q01DX009 (ip), vehicle: saline
[4] = dose: 100.0 mg/kg/injection, schedule: Q01DX001 (ip), vehicle: saline
[5] = dose: 200.0 mg/kg/injection, schedule: Q01DX001 (ip), vehicle: saline
[6] = dose: 400.0 mg/kg/injection, schedule: Q01DX001 (ip), vehicle: saline
[7] = dose: 50.0 mg/kg/injection, schedule: Q04DX003 (ip), vehicle: Klucel (hydroxypropylcellulose) (HPC)
[8] = dose: 100.0 mg/kg/injection, schedule: Q04DX003 (ip), vehicle: Klucel (hydroxypropylcellulose) (HPC)
[9] = dose: 200.0 mg/kg/injection, schedule: Q04DX003 (ip), vehicle: Klucel (hydroxypropylcellulose) (HPC)
[10] = dose: 400.0 mg/kg/injection, schedule: Q04DX003 (ip), vehicle: Klucel (hydroxypropylcellulose) (HPC)
[11] = dose: 100.0 mg/kg/injection, schedule: Q01DX009 (ip), vehicle: Klucel (hydroxypropylcellulose) (HPC)
[12] = dose: 200.0 mg/kg/injection, schedule: Q01DX009 (ip), vehicle: Klucel (hydroxypropylcellulose) (HPC)
[13] = dose: 100.0 mg/kg/injection, schedule: Q04DX002 (ip), vehicle: Klucel (hydroxypropylcellulose) (HPC)
[14] = dose: 200.0 mg/kg/injection, schedule: Q04DX002 (ip), vehicle: Klucel (hydroxypropylcellulose) (HPC)
[15] = dose: 100.0 mg/kg/injection, schedule: Q04DX003 (ip), vehicle: saline
[16] = dose: 100.0 mg/kg/injection, schedule: Q04DX002 (ip), vehicle: saline with Tween-80

Measured: T/C

COC(=O)c1c(C)ccc2c(O)c3c(cc12)C(=O)c1c2c(cc(O)c1C3=O)C1(C)OC(C)(O2)C(O)C(N(C)C)C1O (stereo unspecified)
inactive: [1] 96 % of control | [2] 96 % of control | [3] 104 % of control | dose: 200.0 mg/kg/injection, schedule: Q01DX009 (ip), vehicle: saline 98 % of control | dose: 400.0 mg/kg/injection, schedule: Q01DX009 (ip), vehicle: saline 102 % of control

Cc1ccc(S(=O)(=O)c2ccccc2C)s1
inactive: [4] 97 % of control | dose: 100.0 mg/kg/injection, schedule: Q04DX003 (ip), vehicle: acetone 94 % of control | [5] 98 % of control | dose: 200.0 mg/kg/injection, schedule: Q04DX003 (ip), vehicle: acetone 98 % of control | [6] 93 % of control | dose: 400.0 mg/kg/injection, schedule: Q04DX003 (ip), vehicle: acetone 94 % of control

O=C(N/N=C/c1ccccc1O)N/N=C/c1ccccc1O
inactive: [7] 96 % of control | [8] 90 % of control | [9] 88 % of control

O=C(O)CNC(=O)c1cccc([N+](=O)[O-])c1
inactive: [8] 99 % of control | [9] 101 % of control | [10] 94 % of control

O=C(O)CCNC(=O)CNC(=O)OCc1ccccc1
inactive: [11] 98 % of control | [12] 100 % of control | dose: 300.0 mg/kg/injection, schedule: Q01DX009 (ip), vehicle: Klucel (hydroxypropylcellulose) (HPC) 98 % of control

CCOC(=O)c1cnc(SCC)nc1SC#N
inactive: dose: 100.0 mg/kg/injection, schedule: Q01DX009 (ip), vehicle: gum acacia 105 % of control | dose: 100.0 mg/kg/injection, schedule: Q04DX003 (ip), vehicle: gum acacia 105 % of control | dose: 200.0 mg/kg/injection, schedule: Q01DX009 (ip), vehicle: gum acacia 106 % of control | dose: 200.0 mg/kg/injection, schedule: Q04DX003 (ip), vehicle: gum acacia 97 % of control | dose: 400.0 mg/kg/injection, schedule: Q01DX009 (ip), vehicle: gum acacia 97 % of control | dose: 400.0 mg/kg/injection, schedule: Q04DX003 (ip), vehicle: gum acacia 97 % of control

O=S(=O)(CCCl)Cc1ccc(Cl)cc1
inactive: [13] 104 % of control | [14] 93 % of control

COC1OC(CBr)C(OS(C)(=O)=O)C(OC(=O)c2ccccc2)C1OC(=O)c1ccccc1 (stereo unspecified)
inactive: [13] 103 % of control | [14] 91 % of control | dose: 400.0 mg/kg/injection, schedule: Q04DX002 (ip), vehicle: Klucel (hydroxypropylcellulose) (HPC) 94 % of control

CCOC(=O)/C(=N/N=C(N)N)c1c(C)[nH]c2ccccc12
inactive: dose: 15.0 mg/kg/injection, schedule: Q01DX Z (ip), vehicle: carboxymethylcellulose (CMC) 102 % of control | dose: 30.0 mg/kg/injection, schedule: Q01DX Z (ip), vehicle: carboxymethylcellulose (CMC) 100 % of control | dose: 60.0 mg/kg/injection, schedule: Q01DX Z (ip), vehicle: carboxymethylcellulose (CMC) 95 % of control and 100 % of control | dose: 120.0 mg/kg/injection, schedule: Q01DX Z (ip), vehicle: carboxymethylcellulose (CMC) 93 % of control and 100 % of control | dose: 240.0 mg/kg/injection, schedule: Q01DX Z (ip), vehicle: carboxymethylcellulose (CMC) 100 % of control | dose: 240.0 mg/kg/injection, schedule: Q01DX Z (sc), vehicle: carboxymethylcellulose (CMC) 112 % of control | dose: 480.0 mg/kg/injection, schedule: Q01DX Z (ip), vehicle: carboxymethylcellulose (CMC) 90 % of control | dose: 480.0 mg/kg/injection, schedule: Q01DX Z (sc), vehicle: carboxymethylcellulose (CMC) 114 % of control | dose: 960.0 mg/kg/injection, schedule: Q01DX Z (sc), vehicle: carboxymethylcellulose (CMC) 120 % of control | dose: 1920.0 mg/kg/injection, schedule: Q01DX Z (sc), vehicle: carboxymethylcellulose (CMC) 103 % of control

C[N+]1(CCC[N+]2(C)CC3CCCCC3C2)CCOCC1 (stereo unspecified)
inactive: [15] 99 % of control | dose: 200.0 mg/kg/injection, schedule: Q04DX003 (ip), vehicle: saline 96 % of control | dose: 400.0 mg/kg/injection, schedule: Q04DX003 (ip), vehicle: saline 105 % of control

NP(=O)(CCl)NC12CC3CC(CC(C3)C1)C2 (stereo unspecified)
inactive: dose: 50.0 mg/kg/injection, schedule: Q01DX009 (ip), vehicle: Klucel (hydroxypropylcellulose) (HPC) 86 % of control | [11] 95 % of control | [12] 93 % of control

CCOC(=O)C/C(C)=N\N=C(\C)C(=O)OCC
inactive: [4] 98 % of control | [5] 98 % of control | [6] 92 % of control

CCSCC(C)O (stereo unspecified)
inactive: [16] 100 % of control | dose: 200.0 mg/kg/injection, schedule: Q04DX002 (ip), vehicle: saline with Tween-80 100 % of control | dose: 400.0 mg/kg/injection, schedule: Q04DX002 (ip), vehicle: saline with Tween-80 94 % of control

Cc1ccc(Nc2ccc([N+](=O)[O-])cc2[N+](=O)[O-])cc1C
inactive: [7] 102 % of control | [11] 108 % of control | [8] 102 % of control | [12] 90 % of control | [9] 98 % of control and 104 % of control | dose: 400.0 mg/kg/injection, schedule: Q01DX009 (ip), vehicle: Klucel (hydroxypropylcellulose) (HPC) 97 % of control | [10] 89 % of control

Cc1ccc(S(=O)(=O)N=P(c2ccccc2)(c2ccccc2)c2ccccc2)cc1
inactive: dose: 50.0 mg/kg/injection, schedule: Q01DX001 (ip), vehicle: carboxymethylcellulose (CMC) 90 % of control | dose: 100.0 mg/kg/injection, schedule: Q01DX001 (ip), vehicle: carboxymethylcellulose (CMC) 95 % of control | dose: 100.0 mg/kg/injection, schedule: Q04DX003 (ip), vehicle: saline with Tween-80 86 % of control | dose: 200.0 mg/kg/injection, schedule: Q01DX001 (ip), vehicle: carboxymethylcellulose (CMC) 92 % of control | dose: 200.0 mg/kg/injection, schedule: Q04DX003 (ip), vehicle: saline with Tween-80 86 % of control | dose: 400.0 mg/kg/injection, schedule: Q01DX001 (ip), vehicle: carboxymethylcellulose (CMC) 86 % of control | dose: 400.0 mg/kg/injection, schedule: Q04DX003 (ip), vehicle: saline with Tween-80 91 % of control

Cc1ccc(S(=O)(=O)OCC2CC3CCC2C3)cc1 (stereo unspecified)
inactive: dose: 100.0 mg/kg/injection, schedule: Q04DX003 (ip), vehicle: other 91 % of control | dose: 200.0 mg/kg/injection, schedule: Q04DX003 (ip), vehicle: other 94 % of control | dose: 400.0 mg/kg/injection, schedule: Q04DX003 (ip), vehicle: other 98 % of control

O=C1CCC2C1CC1CC3C(=O)CCC3C12 (stereo unspecified)
inactive: dose: 50.0 mg/kg/injection, schedule: Q04DX002 (ip), vehicle: saline with Tween-80 113 % of control | [16] 98 % of control

CC(C(O)c1cc(=O)n(C)c2ccccc12)[N+](=O)[O-] (stereo unspecified)
inactive: dose: 100.0 mg/kg/injection, schedule: Q01DX001 (ip), vehicle: other 95 % of control | dose: 200.0 mg/kg/injection, schedule: Q01DX001 (ip), vehicle: other 110 % of control | dose: 400.0 mg/kg/injection, schedule: Q01DX001 (ip), vehicle: other 101 % of control

O=C1Nc2c(Cl)cccc2C1=O
inactive: [1] 92 % of control | dose: 25.0 mg/kg/injection, schedule: Q04DX003 (ip), vehicle: saline 98 % of control | [2] 94 % of control | dose: 50.0 mg/kg/injection, schedule: Q04DX003 (ip), vehicle: saline 98 % of control | [3] 92 % of control | [15] 96 % of control

O=c1ccn(C2OC(CF)C(O)C2O)c(=O)[nH]1 (stereo unspecified)
inactive: dose: 100.0 mg/kg/injection, schedule: Q01DX005 (ip), vehicle: saline 104 % of control | [8] 106 % of control | dose: 200.0 mg/kg/injection, schedule: Q01DX005 (ip), vehicle: saline 104 % of control | [9] 110 % of control | [10] 101 % of control
